Data taken from ChEMBL document CHEMBL1201862, “PubChem BioAssay data set” (2004).
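Protocol summary: plate cells (96-well), add compound at 5 concentrations, incubate 48 h, interpolate endpoints linearly. Here, GI50 denotes the concentration required for 50% inhibition of growth.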 Activity calls are given as the source filed them. No stated cut-off is given here; in the data, active = GI50 up to about 1.1 µM and inactive = higher.

How the values were obtained:
Experiment in all cases: inhibition of tumour cell growth, NCI panel, 48 h
[1] = system: UACC-62
[2] = system: OVCAR-3
[3] = system: EKVX
[4] = system: OVCAR-8
[5] = system: HCT-15
[6] = system: HT-29
[7] = system: M14
[8] = system: COLO 205
[9] = system: HL-60
[10] = system: SK-MEL-28
[11] = system: SF-295
[12] = system: NCI-H23
[13] = system: NCI-H226
[14] = system: UO-31
[15] = system: RXF 393
[16] = system: SK-MEL-2
[17] = system: CCRF-CEM
[18] = system: PC-3
[19] = system: MDA-MB-231

SMILES | GI50 [1] | GI50 [2] | GI50 [3] | GI50 [4] | GI50 [5] [µM] | GI50 [6] | GI50 [7] | GI50 [8] | GI50 [9] | GI50 [10] | GI50 [11] | GI50 [12] | GI50 [13] | GI50 [14] | GI50 [15] | GI50 [16] | GI50 [17] | GI50 [18] | GI50 [19]
C=CCC1(CN(C)C)CC/C(=C\c2ccc(OC)cc2)C1=O (centres undefined) | > 100 µM (inactive) | > 100 µM (inactive) | 20.3 µM (inactive) | 69.8 µM (inactive) | 52 | 36.6 µM (inactive) | 74.5 µM (inactive) | 46.7 µM (inactive) | 15 µM (inactive) | > 100 µM (inactive) | > 100 µM (inactive) | 81.7 µM (inactive) | > 100 µM (inactive) | 89.9 µM (inactive) | > 100 µM (inactive) | > 100 µM (inactive) | 34.8 µM (inactive) | – | –
Clc1ccc(-c2c(C3=NCCN3)nnn2-c2ccccc2)cc1 | > 100 µM (inactive) | > 100 µM (inactive) | > 100 µM (inactive) | > 100 µM (inactive) | > 100 | 68.7 µM (inactive) | > 100 µM (inactive) | 40.1 µM (inactive) | > 100 µM (inactive) | > 100 µM (inactive) | > 100 µM (inactive) | > 100 µM (inactive) | > 100 µM (inactive) | 82.4 µM (inactive) | > 100 µM (inactive) | 51.2 µM (inactive) | > 100 µM (inactive) | – | –
CCC(=O)CCC1=Nc2nnc(CCCCc3nnc4n3C(=O)C(CCC(=O)CC)=N4)n2C1=O | > 100 µM (inactive) | > 100 µM (inactive) | > 100 µM (inactive) | > 100 µM (inactive) | > 100 | > 100 µM (inactive) | > 100 µM (inactive) | > 100 µM (inactive) | > 100 µM (inactive) | > 100 µM (inactive) | > 100 µM (inactive) | > 100 µM (inactive) | > 100 µM (inactive) | > 100 µM (inactive) | > 100 µM (inactive) | > 100 µM (inactive) | > 100 µM (inactive) | – | –
Oc1ccccc1/C=N/Cc1ccco1 | > 100 µM (inactive) | > 100 µM (inactive) | > 100 µM (inactive) | > 100 µM (inactive) | – | > 100 µM (inactive) | > 100 µM (inactive) | – | > 100 µM (inactive) | > 100 µM (inactive) | > 100 µM (inactive) | > 100 µM (inactive) | > 100 µM (inactive) | > 100 µM (inactive) | > 100 µM (inactive) | – | > 100 µM (inactive) | – | –
O=C1CCCC2=C1CC1=C(CCCC1=O)N2c1ccc(Cl)cc1 | > 100 µM (inactive) | > 100 µM (inactive) | > 100 µM (inactive) | 97.1 µM (inactive) | > 100 | > 100 µM (inactive) | > 100 µM (inactive) | > 100 µM (inactive) | 28.1 µM (inactive) | > 100 µM (inactive) | > 100 µM (inactive) | > 100 µM (inactive) | > 100 µM (inactive) | > 100 µM (inactive) | > 100 µM (inactive) | – | 69.7 µM (inactive) | > 100 µM (inactive) | > 100 µM (inactive)
COc1ccc(CC(=O)NCCc2ccc(OC)c(OC)c2)cc1Br | 62.1 µM (inactive) | – | > 100 µM (inactive) | > 100 µM (inactive) | – | > 100 µM (inactive) | – | > 100 µM (inactive) | > 100 µM (inactive) | > 100 µM (inactive) | > 100 µM (inactive) | > 100 µM (inactive) | 41.5 µM (inactive) | > 100 µM (inactive) | > 100 µM (inactive) | > 100 µM (inactive) | > 100 µM (inactive) | – | –
COC(C(=O)NN)c1ccccc1 (centres undefined) | > 100 µM (inactive) | > 100 µM (inactive) | > 100 µM (inactive) | > 100 µM (inactive) | > 100 | > 100 µM (inactive) | > 100 µM (inactive) | – | – | > 100 µM (inactive) | > 100 µM (inactive) | > 100 µM (inactive) | > 100 µM (inactive) | > 100 µM (inactive) | > 100 µM (inactive) | > 100 µM (inactive) | – | > 100 µM (inactive) | –
c1ccc(C2SCc3nc4ccccc4n32)cc1 (centres undefined) | 37.2 µM (inactive) | 19.1 µM (inactive) | 39.4 µM (inactive) | 65 µM (inactive) | 44.4 | 46 µM (inactive) | 84.5 µM (inactive) | 37.8 µM (inactive) | 15.6 µM (inactive) | 40.3 µM (inactive) | 23 µM (inactive) | 31.5 µM (inactive) | 17.8 µM (inactive) | 24.6 µM (inactive) | 53.2 µM (inactive) | 29.6 µM (inactive) | 76.2 µM (inactive) | – | –
CCC(C)[C@@H](NCc1ccccc1)[C@H](OCc1ccccc1)[C@@H]1COC(C)(C)O1 (some centres undefined) | 20.6 µM (inactive) | 28.7 µM (inactive) | 20.5 µM (inactive) | 20.5 µM (inactive) | 15.7 | 10.7 µM (inactive) | 29.2 µM (inactive) | 15.9 µM (inactive) | – | 24.8 µM (inactive) | 21 µM (inactive) | 18.8 µM (inactive) | 14.8 µM (inactive) | 17.3 µM (inactive) | – | 18.2 µM (inactive) | 27.1 µM (inactive) | 28.6 µM (inactive) | 17.1 µM (inactive)
C[N+](C)=c1nc(N2CCOCC2)ss1 | 8.53 µM (inactive) | – | > 100 µM (inactive) | > 100 µM (inactive) | > 100 | 22.8 µM (inactive) | > 100 µM (inactive) | – | > 100 µM (inactive) | > 100 µM (inactive) | 78.2 µM (inactive) | > 100 µM (inactive) | > 100 µM (inactive) | > 100 µM (inactive) | > 100 µM (inactive) | > 100 µM (inactive) | > 100 µM (inactive) | – | –
CC1=C2CC[C@@]3(C)C(=CCC3O)C2(C)CCC1=O (some centres undefined) | 56.4 µM (inactive) | > 100 µM (inactive) | 27.1 µM (inactive) | > 100 µM (inactive) | > 100 | > 100 µM (inactive) | > 100 µM (inactive) | > 100 µM (inactive) | > 100 µM (inactive) | > 100 µM (inactive) | > 100 µM (inactive) | – | > 100 µM (inactive) | > 100 µM (inactive) | > 100 µM (inactive) | – | > 100 µM (inactive) | – | –
O=C1C=C(N2CCCC2)C=C(N2CCCC2)C1 | > 100 µM (inactive) | 75.5 µM (inactive) | > 100 µM (inactive) | > 100 µM (inactive) | > 100 | > 100 µM (inactive) | > 100 µM (inactive) | > 100 µM (inactive) | > 100 µM (inactive) | > 100 µM (inactive) | > 100 µM (inactive) | > 100 µM (inactive) | > 100 µM (inactive) | > 100 µM (inactive) | > 100 µM (inactive) | > 100 µM (inactive) | > 100 µM (inactive) | – | –
Cc1nc2c(sc(=S)n2-c2ccccc2)c2nc3ccccc3n12 | > 100 µM (inactive) | > 100 µM (inactive) | > 100 µM (inactive) | > 100 µM (inactive) | > 100 | > 100 µM (inactive) | > 100 µM (inactive) | > 100 µM (inactive) | > 100 µM (inactive) | > 100 µM (inactive) | > 100 µM (inactive) | > 100 µM (inactive) | > 100 µM (inactive) | > 100 µM (inactive) | > 100 µM (inactive) | > 100 µM (inactive) | > 100 µM (inactive) | – | –
COc1cc(C2SCC(=O)N2c2ccccc2Cl)cc(OC)c1OC (centres undefined) | > 100 µM (inactive) | > 100 µM (inactive) | > 100 µM (inactive) | > 100 µM (inactive) | > 100 | > 100 µM (inactive) | > 100 µM (inactive) | > 100 µM (inactive) | 37.8 µM (inactive) | > 100 µM (inactive) | > 100 µM (inactive) | > 100 µM (inactive) | > 100 µM (inactive) | > 100 µM (inactive) | – | > 100 µM (inactive) | 80.4 µM (inactive) | > 100 µM (inactive) | > 100 µM (inactive)
CCOC(=O)C1=C(O)C(=O)c2ccoc2C1=O | > 100 µM (inactive) | > 100 µM (inactive) | > 100 µM (inactive) | > 100 µM (inactive) | > 100 | > 100 µM (inactive) | > 100 µM (inactive) | > 100 µM (inactive) | > 100 µM (inactive) | > 100 µM (inactive) | > 100 µM (inactive) | > 100 µM (inactive) | > 100 µM (inactive) | > 100 µM (inactive) | > 100 µM (inactive) | > 100 µM (inactive) | > 100 µM (inactive) | – | –
C[N+](C)(C)CC(=O)N/N=c1\cc(C(=O)Nc2ccc(N=O)cc2C#N)oc2cc(O)ccc12 | > 100 µM (inactive) | > 100 µM (inactive) | > 100 µM (inactive) | > 100 µM (inactive) | > 100 | > 100 µM (inactive) | > 100 µM (inactive) | > 100 µM (inactive) | > 100 µM (inactive) | > 100 µM (inactive) | > 100 µM (inactive) | > 100 µM (inactive) | > 100 µM (inactive) | 72.3 µM (inactive) | > 100 µM (inactive) | > 100 µM (inactive) | > 100 µM (inactive) | – | –
CC(=O)Oc1cc2oc(=O)cc(C)c2cc1OC(C)=O | 58.2 µM (inactive) | 33.1 µM (inactive) | 52.5 µM (inactive) | 32.2 µM (inactive) | 38.5 | 39.6 µM (inactive) | 50.6 µM (inactive) | 48 µM (inactive) | – | 53.1 µM (inactive) | 41.8 µM (inactive) | 75.2 µM (inactive) | 40.2 µM (inactive) | 24.6 µM (inactive) | – | > 100 µM (inactive) | 16.7 µM (inactive) | 84.9 µM (inactive) | 58.7 µM (inactive)
